From US7091182B2, “Method for assisting in differential diagnosis and treatment of autistic syndromes” (Repligen Corporation, priority 1997, dated 2006)
“Also recorded” adds a separate entry of the source.

Columns and labels:
[1] = test system: children with autistic behavior; assay: Pancreatic stimulation with secretin during upper gastrointestinal endoscopy, collection of pancreatico-biliary fluid; type: in vivo, human
Protocol: (§1) After fasting from midnight, upper gastrointestinal endoscopies were carried out the next morning under general anesthesia. All gastric juice was aspirated before passing the endoscope into the duodenum. The pancreatico-biliary juice was collected after positioning the endoscope distal to the ampulla of Vater. An ERCP catheter was placed into the channel of endoscope and the fluid was collected by moving the tip into the outcoming fluid and suctioning it into a syringe. The pancreas was then stimulated with secretin 2 IU/kg BW (Ferring Laboratories, Inc. Suffern, NY, USA) given intravenously within a minute. Three additional specimens were collected after the secretin injection within a 10-minute period. Blood samples were collected prior to and 10 minutes after secretin stimulation. In a subgroup of children, the effect of duodenal acidification was determined by measurement of blood secretin levels before and 4–5 minutes after washing the second part of the duodenum with 0.05M hydrochloric acid for 5 minutes. At the end of the procedure, biopsies were obtained of the small intestine, esophagus and stomach.
The volume of secreted fluid was calculated as ml/min and the aspirated juice analyzed for pH, protein (mg/ml; Bio-Rad protein assay), and for enzymes (amylase, trypsin, lipase, chymotrypsin, and carboxypeptidase A and B). These enzyme assays were modified by us and run regularly in our certified Clinical Laboratory. An aliquot of collected fluid was sent for bacterial and fungal culture. Intestinal biopsy specimens were homogenized in ice-cold distilled water and the activities of lactase, maltase, sucrase, palatinase and glucoamylase were measured using the Dahlquist intestinal disaccharidases assay [Dahlquist, Anal. Biochem. 22:99–107 (1968); Azad M, Pediatr Res, 1990;28: 166–170 (1990)]. The normal values were established based on measurements of histological normal intestinal biopsy tissues (n=104) at the University of Maryland. In our practice, digestive enzyme activities below the established 3d percentile values are considered abnormal.

[2] = test system: children with autistic behavior; assay: Evoked potential studies and SPECT imaging of the brain before and after secretin (Case 1); type: in vivo, human
Excerpt: Case 1. […], was the product of a full-term uncomplicated pregnancy. Development of language and social behavior proceeded normally until about 15 months of age. At that time they lost their expressive vocabulary and their social behavior deteriorated. They were clinically diagnosed with autism by a pediatric neurologist. A multidisciplinary evaluation changed the diagnosis to PDD not otherwise specified. […] Because of their chronic diarrhea and elevated antigliadin IgG antibody titer, they underwent an upper gastrointestinal endoscopy. […] Three weeks after the procedure their parent reported significant changes in their gastrointestinal symptoms and behavior. […] More dramatic changes occurred in their autistic behavior (Table 4). […] Eight months after the procedure they have still retained their cognitive gains.

[3] = test system: rats; details: ICV; cited from earlier work
[4] = test system: children with autistic behavior; assay: Blood levels of gastrointestinal peptide hormones and neurotransmitters prior to and 10 minutes after secretin stimulation; type: in vivo, human
Protocol: as §1
Blood samples were analyzed for the levels of gastrointestinal peptide hormones (Secretin, CCK, VIP, Peptide Y) and neurotransmitters (Serotonin, Substance P). All the assays were performed in the Interscience Institute (Inglewood, Calif.) specialized in gastrointestinal hormone measurements.

[5] = Group I (chronic loose stools/diarrhea)

Substance: secretin
- pancreatic secretory response ([1]; Case 1, after 2 IU/kg BW of secretin): 10 mL/min
- secretory response after secretin administration ([1]; Case 2, 2 IU/kg body weight of secretin): 7.5 mL/min
- pancreato-biliary response to secretin, output ([1]; Case 3): 8 mL/min
- Pancreatic secretion [1, 5]: Increased (>5 ml/min)
- Pancreatic secretion ([1]; Group II (no diarrhea)): Normal (<4 ml/min)
- pancreato-biliary secretory response compared to non-autistic patients ([1]; all children, after secretin injection): extensive pancreato-biliary secretory response
- highest rate of secretion ([1]; in one child): 10 mL/min
- pancreatico-biliary secretion rates ([1]; six out of 7 autistic patients who had chronic loose stools): above 5 ml/min
- repeat evoked potential studies ([2]; Case 1, eight months after secretin administration): only a minimal delay in responses
- SPECT, cerebral perfusion / blood flow ([2]; Case 1, follow-up versus pre-secretin study): marked improvement in the cerebral blood flow; also recorded: less marked decrease in perfusion of right posterior parietal and right temporal lobes
- defecation [3]: significantly increased
- novel-object approaches [3]: decreased
- stereotypic behavior [3]: no significant effects
- Serotonin level after secretin injection [4, 5]: >50% elevation
- Serotonin level after secretin injection ([4]; Group II (no diarrhea)): <50% elevation
- blood level of CCK ([4]; after secretin injection): no change at all
- blood level of VIP ([4]; after secretin injection): no change at all
- blood level of substance P ([4]; after secretin injection): no change at all
- blood serotonin level ([4]; children with chronic diarrhea, ten minutes after secretin injection, fasting): significant elevation
- blood level of Peptide Y ([4]; four children, before or after secretin administration): no abnormality
